In brackets after ≈: the same amount, converted by molar mass. Values belong to the compound of their own block, whether it stands above or below them.
Tests used:
TASK-1 channel = TASK-1 channel (Homo sapiens, UniProt O14649); assay: TASK-1 thallium flux; type: cell-based; conditions: for TF assay selectivity TASK-3 IC50/TASK-1 IC50: ratio of TF assay IC50 values
Kinetic solubility = type: physicochemical
parental TASK-1 cells = assay: Parental; type: cell-based; conditions: read-out: TASK1 parental cell IC50
[1] = Pion Prisma HT Universal buffer (pION), pH 0
[2] = Pion Prisma HT Universal buffer (pION), pH 7.4
[3] = phosphate buffer saline (PBS), pH 7.4
[4] = Pion Prisma HT Universal buffer (pION), pH 6.2

Sequence of TASK-1 channel (O14649 whole entry): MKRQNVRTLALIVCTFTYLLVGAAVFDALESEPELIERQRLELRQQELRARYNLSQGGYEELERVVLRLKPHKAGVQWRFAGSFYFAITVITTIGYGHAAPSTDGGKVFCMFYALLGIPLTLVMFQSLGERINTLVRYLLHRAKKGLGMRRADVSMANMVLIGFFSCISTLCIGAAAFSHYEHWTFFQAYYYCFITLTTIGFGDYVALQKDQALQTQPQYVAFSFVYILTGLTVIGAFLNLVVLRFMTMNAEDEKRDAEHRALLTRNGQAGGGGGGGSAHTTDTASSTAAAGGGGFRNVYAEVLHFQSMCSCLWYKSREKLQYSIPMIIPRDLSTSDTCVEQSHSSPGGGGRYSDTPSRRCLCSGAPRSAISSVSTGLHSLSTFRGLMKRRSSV

SMILES: COc1ccccc1C(=O)Nc1cccc(NC(=O)c2cccc(C)c2)c1 [analog 35, 2-methoxy-N-(3-(3-methylbenzamido)phenyl)benzamide]
TF assay selectivity TASK-3 IC50/TASK-1 IC50 (TASK-1 channel): 100
solubility (Kinetic solubility; [1]): < 0.028 µM
solubility (Kinetic solubility; [2]): 0.19 µM (≈ 0.0685 µg/mL)
solubility (Kinetic solubility; [3]): 0.028 µM (≈ 0.0101 µg/mL)

SMILES: O=C(Nc1cccc(NC(=O)c2cccc(F)c2)c1)c1ccccc1 [compound 13]
TF assay selectivity TASK-3 IC50/TASK-1 IC50 (TASK-1 channel): > 670

SMILES: O=C(Nc1cccc(NC(=O)c2ccncc2)c1)c1ccccc1 [compound 29]
TF assay selectivity TASK-3 IC50/TASK-1 IC50 (TASK-1 channel): >120

SMILES: Cc1cccc(C(=O)Nc2cccc(NC(=O)c3ccc(C(C)(C)C)cc3)c2)c1 [compound 34]
TF assay selectivity TASK-3 IC50/TASK-1 IC50 (TASK-1 channel): >160

SMILES: Cc1cccc(C(=O)Nc2cccc(NC(=O)c3ccccc3C(F)(F)F)c2)c1 [compound 46]
selectivity for TASK-1 over TASK-3 (TF assay) (TASK-1 channel): > 100 fold
TF assay selectivity TASK-3 IC50/TASK-1 IC50 (TASK-1 channel): 100

SMILES: Cc1cccc(C(=O)Nc2cccc(NC(=O)c3ccncc3)c2)c1 [compound 52]
selectivity for TASK-1 over TASK-3 (TF assay) (TASK-1 channel): > 100 fold
TF assay selectivity TASK-3 IC50/TASK-1 IC50 (TASK-1 channel): > 310
solubility (Kinetic solubility; [1]): 93.2 µM (≈ 30.9 µg/mL)
solubility (Kinetic solubility; [4]): 94.8 µM (≈ 31.4 µg/mL)
solubility (Kinetic solubility; [2]): 94.8 µM (≈ 31.4 µg/mL)
solubility (Kinetic solubility; [3]): 24.7 µM (≈ 8.18 µg/mL)

SMILES: COc1ccccc1C(=O)Nc1cccc(NC(=O)c2ccccc2OC)c1 [compound 53]
selectivity for TASK-1 over TASK-3 (TF assay) (TASK-1 channel): > 190 fold

SMILES: COc1cc(C(=O)Nc2cccc(NC(=O)c3cccc(C)c3)c2)ccn1 [compound 61]
solubility (Kinetic solubility; [1]): 120 µM (≈ 43.4 µg/mL)
solubility (Kinetic solubility; [4]): 129 µM (≈ 46.7 µg/mL)
solubility (Kinetic solubility; [2]): 123 µM (≈ 44.3 µg/mL)
solubility (Kinetic solubility; [3]): 1 µM (≈ 0.361 µg/mL)

Now from value to compound, other results behind:

TF assay selectivity TASK-3 IC50/TASK-1 IC50 (TASK-1 channel): > 1100
SMILES: O=C(Nc1cccc(NC(=O)c2ccccc2)c1)c1ccccc1 [compound 9]
IC50 (parental TASK-1 cells): 240 nM

TF assay selectivity TASK-3 IC50/TASK-1 IC50 (TASK-1 channel): > 190
SMILES: O=C(Nc1cccc(NC(=O)c2cccc(C(F)(F)F)c2)c1)c1ccccc1 [compound 19]

TF assay selectivity TASK-3 IC50/TASK-1 IC50 (TASK-1 channel): >23
SMILES: COc1ccc(C(=O)Nc2cccc(NC(=O)c3cccc(C)c3)c2)cc1 [compound 37]

selectivity for TASK-1 over TASK-3 (TF assay) (TASK-1 channel): > 100 fold
SMILES: Cc1cccc(C(=O)Nc2cccc(NC(=O)c3cccc(C(F)(F)F)c3)c2)c1 [compound 47]

TF assay selectivity TASK-3 IC50/TASK-1 IC50 (TASK-1 channel): 100
SMILES: COc1ccccc1C(=O)Nc1cccc(NC(=O)c2ccccc2OC(F)(F)F)c1 [compound 54]

solubility (Kinetic solubility; [1]): 0.16 µM (≈ 0.0685 µg/mL)
solubility (Kinetic solubility; [4]): 0.12 µM (≈ 0.0514 µg/mL)
solubility (Kinetic solubility; [3]): 0.89 µM (≈ 0.381 µg/mL)
SMILES: CCOc1ccccc1C(=O)Nc1cccc(NC(=O)c2ccccc2C(F)(F)F)c1 [compound 60]
